According to publication PMC9936527, “Tandemly duplicated CYP82Ds catalyze 14-hydroxylation in triptolide biosynthesis and precursor production in Saccharomyces cerevisiae” (Nature Communications, 2023):

What was measured:
Format in all cases: biochemical, Tripterygium wilfordii
Settings in all cases: NADPH with regenerating system, TwPOR3, Tris-HCl pH 7.5, 30 °C, 30 min; 14-hydroxylation
CYP82D263 = system: T1, CYP82D263; test: yeast microsomes, product […] by LC-TQ-MS/MS, Michaelis-Menten fit
T1 construct: full-length CYP cloned from root cDNA, coexpressed with TwPOR3 (pESC-LEU) in Saccharomyces cerevisiae BY4741; yeast microsomes; with NADPH--cytochrome P450 reductase

CYP82D274 [1] = system: T2, CYP82D274; test: as above
T2 construct: full-length CYP cloned from root cDNA, coexpressed with TwPOR3 (pESC-LEU) in Saccharomyces cerevisiae BY4741; yeast microsomes; with NADPH--cytochrome P450 reductase

CYP82D274 [2] = system: T2, CYP82D274; test: yeast microsomes, product […] by GC-MS, Michaelis-Menten fit

Row | Structure (SMILES) | Km (CYP82D263) [µM] | Km (CYP82D274 [1]) [µM] | Km (CYP82D274 [2]) [µM]
1 | CC(C)c1ccc2c(c1)CC[C@H]1[C@](C)(C(=O)O)CCC[C@]21C [compound 7, dehydroabietic acid] | 8.42 ± 1.89 | 0.99 ± 0.17 | 
2 | CC(C)C1=CCC2=C(CC[C@H]3C(C)(C)CCC[C@]23C)C1 [compound 5, miltiradiene] |  |  | 47.3 ± 13
